# In patent US7314614B1, “Recombinant sendai virus vector for introducing exogenous genes to airway epithelia” (priority 1999, dated 2008):
# Target: T1, CFTR (Homo sapiens, UniProt P13569)
# T1 construct: expressed in transfected cells; host or cells: COS7 cells infected with the recombinant Sendai virus SeV/CFTR (CFTR cDNA in the NotI site of pSeV18+b(+))
# Assay: Whole-cell patch clamp of COS7 cells infected with CFTR-expressing Sendai virus
# Format: cell-based
# Settings: COS7 cells expressing sample-1 SeV/CFTR
# Description: COS7 cells were infected with the prepared CFTR-expressing Sendai virus (sample-1 SeV/CFTR), and the obtained infected cells were analyzed by the whole-cell patch clamp technique. […] A glass pipette containing a pipette solution was contacted with a cell within a bath solution, and negative pressure was applied to remove the cell membranes. In this occasion, the pipette solution contains 145 mM NMDG^+, 148.4 mM Cl^−, […], 5 mM ATP, 10 mM glucose, 0.1 mM EGTA, and 10 mM HEPES (titrated by Tris, pH 7.4), and the bath solution contains 141 mM Na^+, 152.4 mM Cl^−, […], 5 mM K^+, 1.7 mM Mg^2+, 2 mM Ca^2+, 10 mM glucose, 0.1 mM EGTA, and 10 mM HEPES (titrated by Tris, pH 7.4). The effects of forskolin on the membrane current in COS7 cells expressing sample-1 SeV/CFTR were examined by whole-cell recording (FIG. 14). […] The influx current was reproduced by adding forskolin again after a single wash, and was again suppressed by glibenclamide, which confirmed that the observed change in current was a specific drug-induced response.
# T1 sequence (P13569 whole entry): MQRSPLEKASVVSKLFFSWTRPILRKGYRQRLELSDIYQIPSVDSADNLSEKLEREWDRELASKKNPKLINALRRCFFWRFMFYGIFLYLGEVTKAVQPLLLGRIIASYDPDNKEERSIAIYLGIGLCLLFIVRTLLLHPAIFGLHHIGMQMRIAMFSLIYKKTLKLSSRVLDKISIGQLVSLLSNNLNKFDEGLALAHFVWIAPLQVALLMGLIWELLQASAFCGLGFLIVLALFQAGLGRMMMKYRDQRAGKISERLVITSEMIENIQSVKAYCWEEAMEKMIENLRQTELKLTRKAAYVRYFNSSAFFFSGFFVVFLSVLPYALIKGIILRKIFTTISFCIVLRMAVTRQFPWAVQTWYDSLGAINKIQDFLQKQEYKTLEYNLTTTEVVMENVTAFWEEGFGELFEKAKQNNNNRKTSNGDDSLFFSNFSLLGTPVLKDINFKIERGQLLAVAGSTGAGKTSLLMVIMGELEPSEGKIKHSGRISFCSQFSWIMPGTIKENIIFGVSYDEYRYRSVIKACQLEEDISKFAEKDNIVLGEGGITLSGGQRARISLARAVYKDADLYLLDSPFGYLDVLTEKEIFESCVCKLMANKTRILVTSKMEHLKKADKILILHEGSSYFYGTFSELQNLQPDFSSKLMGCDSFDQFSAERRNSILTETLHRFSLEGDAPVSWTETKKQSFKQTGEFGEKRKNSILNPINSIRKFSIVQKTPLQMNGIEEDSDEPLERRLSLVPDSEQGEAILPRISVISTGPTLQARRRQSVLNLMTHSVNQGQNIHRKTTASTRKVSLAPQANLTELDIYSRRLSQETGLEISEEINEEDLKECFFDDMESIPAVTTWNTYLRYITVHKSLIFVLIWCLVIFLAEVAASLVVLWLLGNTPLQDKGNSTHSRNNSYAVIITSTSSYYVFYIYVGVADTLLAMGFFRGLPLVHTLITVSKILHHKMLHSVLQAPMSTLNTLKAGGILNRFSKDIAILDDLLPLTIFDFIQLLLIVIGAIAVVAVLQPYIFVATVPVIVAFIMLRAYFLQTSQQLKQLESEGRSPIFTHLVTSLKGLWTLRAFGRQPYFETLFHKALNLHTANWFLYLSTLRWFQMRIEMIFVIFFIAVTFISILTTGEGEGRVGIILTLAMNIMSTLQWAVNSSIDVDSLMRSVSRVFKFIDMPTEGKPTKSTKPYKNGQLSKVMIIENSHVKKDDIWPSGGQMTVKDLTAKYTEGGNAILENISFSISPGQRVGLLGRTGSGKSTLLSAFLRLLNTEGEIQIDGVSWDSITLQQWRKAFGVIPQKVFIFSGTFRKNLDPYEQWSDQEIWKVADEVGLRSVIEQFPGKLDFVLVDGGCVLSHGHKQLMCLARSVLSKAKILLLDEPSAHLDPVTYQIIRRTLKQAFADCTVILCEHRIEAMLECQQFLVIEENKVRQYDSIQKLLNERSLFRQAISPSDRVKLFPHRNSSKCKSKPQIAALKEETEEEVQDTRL
compound,measurement,setting,value
COc1ccc(Cl)cc1C(=O)NCCc1ccc(S(=O)(=O)NC(=O)NC2CCCCC2)cc1 [Glibenclamide],effect on forskolin-induced Cl− currents,300 μM,inhibited
same,effect on forskolin-induced influx current,"whole-cell recording, reproduced after wash (FIG. 14)",suppressed
